# Literature values, collected in patent publication US20110189166A1, “METHODS OF TREATING HEMORHEOLOGIC ABNORMALITIES IN MAMMALS” (priority 2010, published 2011).
# Assays:
# [1] = tested on: aminophospholipid translocase (flippase); settings: by complexing a sulfhydryl group
# red blood cell = settings: in vitro
# cows = settings: inorganic phosphate for 2-5 days
# [2] = tested on: crenated or spiculated red blood cells (echinocytes); settings: horses, after exercise; U.S. Pat. No. 4,383,997
# flippase = settings: independent of excess intracellular calcium
# human erythrocytes = settings: red blood cells exposed to LPA
molecule,measurement,setting,value
"CCN1C(=O)C=CC1=O [NEM, N-ethylmaleimide]",activity of aminophospholipid translocase (flippase),[1],blocks the activity of aminophospholipid translocase (flippase)
CCCC(=O)Nc1ncnc2c1ncn2[C@@H]1O[C@@H]2COP(=O)(O)O[C@H]2[C@H]1OC(=O)CCC [dibutyryl-cAMP],PS exposure,red blood cell,prevents PS exposure
same,intracellular calcium entry,red blood cell,inhibits intracellular calcium entry
same,reduction of red blood cell aggregation,red blood cell,about 50%
O=P(O)(O)O [inorganic phosphate],hemolysis after treatment,cows,absence of hemolysis
same,time to complete recovery,cows,14 to 21 days
CC(=O)CCCCn1c(=O)c2c(ncn2C)n(C)c1=O [pentoxyfylline],increase of crenated red blood cells following exercise,[2],inhibit the increase of crenated red blood cells following exercise
Lysophosphatidic acid [LPA],flippase inhibition,flippase,inhibit flippase directly
same,PS exposure on red blood cells,human erythrocytes,resulted in PS exposure
same,adherence to endothelial cells,human erythrocytes,increased adherence to endothelial cells
same,thrombin generation,human erythrocytes,potentiated thrombin generation
